Reference: patent US20100292345A1, “THERAPEUTIC USES OF CANNABIGEROL” (GW PHARMA LIMITED, priority 2007, published 2010)

What was measured:
[1] = molecular target: T1, human cannabinoid CB2 receptors (Homo sapiens, UniProt P34972); assay: Inhibition of forskolin-stimulated cyclic AMP production in hCB2-CHO cells; assay type: cell-based; set-up: Emax, inhibition of forskolin-stimulated cyclic AMP production: unit not given here
T1 construct: expressed in transfected cells; host or cells: CHO cells, stably transfected
T1 sequence (P34972 whole entry): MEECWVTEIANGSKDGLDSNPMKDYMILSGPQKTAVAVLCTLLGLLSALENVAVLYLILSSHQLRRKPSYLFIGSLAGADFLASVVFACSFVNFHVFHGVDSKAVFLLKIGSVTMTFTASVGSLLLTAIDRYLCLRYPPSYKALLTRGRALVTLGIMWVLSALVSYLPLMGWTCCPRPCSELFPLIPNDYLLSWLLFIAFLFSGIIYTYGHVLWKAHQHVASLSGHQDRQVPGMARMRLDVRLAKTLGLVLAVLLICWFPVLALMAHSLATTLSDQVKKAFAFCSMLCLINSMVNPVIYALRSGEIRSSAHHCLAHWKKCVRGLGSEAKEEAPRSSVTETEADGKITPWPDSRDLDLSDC

[2] = molecular target: T2, CB1 receptors in mouse brain tissue (Mus musculus, UniProt P47746); assay: [3H]CP55940 radioligand displacement assay, mouse whole brain membranes; assay type: binding
T2 construct: Whole mouse brain membranes were prepared as described by Thomas et al., 2004; from tissue; host or cells: whole mouse brain membranes
T2 sequence (P47746 whole entry): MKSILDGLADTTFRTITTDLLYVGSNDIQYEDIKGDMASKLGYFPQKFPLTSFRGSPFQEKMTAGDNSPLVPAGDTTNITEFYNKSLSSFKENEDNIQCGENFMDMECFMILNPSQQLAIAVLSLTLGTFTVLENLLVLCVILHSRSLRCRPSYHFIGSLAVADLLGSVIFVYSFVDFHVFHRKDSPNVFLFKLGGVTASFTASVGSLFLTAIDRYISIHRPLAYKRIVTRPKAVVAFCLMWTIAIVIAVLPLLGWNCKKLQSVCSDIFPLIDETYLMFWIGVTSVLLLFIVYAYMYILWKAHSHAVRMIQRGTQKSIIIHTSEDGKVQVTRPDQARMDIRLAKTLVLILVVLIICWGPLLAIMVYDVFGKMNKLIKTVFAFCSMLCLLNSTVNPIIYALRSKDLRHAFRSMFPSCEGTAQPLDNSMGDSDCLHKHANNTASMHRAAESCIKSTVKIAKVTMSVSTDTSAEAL
Procedure: (§1) Whole mouse brain membranes were prepared as described by Thomas et al., 2004. CHO cells were stably transfected with cDNA encoding human cannabinoid CB2 receptors and were maintained at 37° C. and 5% CO2 in Dulbecco's Modified Eagle's Medium nutrient mixture.
(§2) The assays were carried out with the established CB1 and CB2 cannabinoid receptor agonist CP55940. This was radiolabelled to form [^3H]CP55940.
(§3) Binding of the radiolabelled compound was initiated by the addition of either the brain membranes (33 μg protein per tube) or the transfected hCB2 cells (25 μg protein per tube).
(§4) All assays were performed at 37° C. for 60 min before termination by addition of ice-cold wash buffer (50 mM Tris buffer, 1 mg ml^−1 bovine serum albumin, pH 7.4) and vacuum filtration using a 24-well sampling manifold and GF/B filters that had been soaked in wash buffer at 4° C. for at least 24 h.
(§5) The test compounds were also tested to determine whether they were able to displace the agonist CP55940 from the binding site of the CB1 or CB2 receptor. The Ki-value that resulted from this investigation gives an insight into how strongly the test compound competes with the agonist for the binding site.

[3] = system: CB1 receptors in mouse brain tissue; assay: [35S]GTPγS binding assay, mouse brain membranes; assay type: biochemical; conditions: conclusion from the example data
Procedure: as §1
The assays were carried out with GTPγS binding buffer (50 mM Tris-HCl; 50 mM Tris-Base; 5 mM MgCl2; 1 mM EDTA; 100 mM NaCl; 1 mM DTT; 0.1% BSA) in the presence of [^35S]GTPγS and GDP, in a final volume of 500 μl. Binding was initiated by the addition of [^35S]GTPγS to the tubes. The drugs were incubated in the assay for 60 min at 30° C. The reaction was terminated by a rapid vacuum filtration method using Tris buffer (50 mM Tris-HCl; 50 mM Tris-Base; 0.1% BSA), as described previously, and the radioactivity was quantified by liquid scintillation spectrometry.
The agonism of the CB1 or CB2 receptors by CP55940 results in a response in the cell. This response is the binding of [^35S]GTPγS to the cell membrane.
Changes in the response in the presence of the test compound can be measured in order to determine whether the compound is acting as an agonist, a neutral antagonist or an inverse agonist. An agonist will increase the response, a neutral antagonist will have no effect on the response and an inverse agonist will stop or reverse the response. […]

[4] = molecular target: T1, human cannabinoid CB2 receptors; assay: [3H]CP55940 radioligand displacement assay, hCB2-CHO cell membranes; conditions: membranes prepared from hCB2-CHO cells; 37° C., 60 min; read-out: Ki, displacement of [3H]CP55940 from specific binding sites
Procedure: as §1, §2, §3, §4, §5

SMILES: CCCCCc1cc(O)c(C/C=C(\C)CCC=C(C)C)c(O)c1 [CBG, cannabigerol]
- functional character at CB2 receptor ([1]; conclusion from the example data): partial agonist
- EC50 ([1]; hCB2-CHO cells, 5 μM forskolin): 388 nM
- Emax, inhibition of forskolin-stimulated cyclic AMP production ([1]; hCB2-CHO cells, 5 μM forskolin): 28.3
- efficacy relative to CP55940 in inhibiting forskolin-stimulated cyclic AMP production ([1]; hCB2-CHO cells, 5 μM forskolin, submicromolar concentrations): efficacy less than that of CP55940
- Ki [2]: 439 nM
- functional character at CB1 receptor [3]: partial agonist
- Ki [4]: 337 nM
